# Measurements reported in patent US20260294769A1, “ASCORBIC ACID DERIVATIVES AND COSMETIC THEREOF” (SEIWA KASEI COMPANY, LIMITED, priority 2023, published 2026).
# Where two headings read alike, the source gives them in different places.
# What was measured:
# [1] = Stability Test-1: residual rate of 1% aqueous solutions stored at 50° C. (HPLC); assay type: physicochemical; details: water; for remaining at 672 h: after 4 weeks
# Protocol: (§1) For each of the samples of Synthesis Examples 1 to 6, 1% aqueous solutions were adjusted to pH 3, 5, 7, 8, and 9 with a dilute potassium hydroxide aqueous solution, and then placed in 50 mL screw tubes and sealed. […] Furthermore, the odor and coloration of the samples adjusted to pH 7 were evaluated based on the following methods and criteria, and the results are shown in Table 11.
# • ⊚: 80% or more • ◯: 50% or more, less than 80% • Δ: 30% or more, less than 50% • x: Less than 30%
# [2] = Stability Test-1: odor of 1% aqueous solutions adjusted to pH 7 stored at 50° C.; assay type: physicochemical; details: 1% aqueous solution pH 7, 50° C., 10 panelists
# Protocol: as §1
# (§2) • Evaluation was made by 10 panelists according to the following criteria. • 3: Almost odorless. • 2: There is a slight strange odor. • 1: A strong odor is detected. • Based on the results of the above evaluation, the following classification was made: • ◯: Total score of 10 panelists is 25 or more • Δ: Total score of 10 panelists is 16-24 • x: The total score of 10 panelists is 15 or less
# [3] = Stability Test-1: coloration of 1% aqueous solutions adjusted to pH 7 stored at 50° C.; assay type: physicochemical; details: 1% aqueous solution pH 7, 50° C., 10 panelists
# Protocol: as §1
# • Evaluation was made by 10 panelists according to the following criteria. • 3: Almost no change compared to immediately after preparation. • 2: Color changes compared to immediately after preparation. • 1: Strongly colored compared to immediately after preparation. • Based on the results of the above evaluation, the following classification was made: […]
# [4] = tested on: Normal human dermal fibroblasts (NHDF); test: Hyaluronic acid production promoting effect (ELISA of hyaluronic acid in supernatant); assay type: cell-based; details: 10 mM or less, 48 hours, control group set to 100%, N=3
# Protocol: Normal human dermal fibroblasts (NHDF) were prepared in D-MEM containing 5% (v/v) fetal bovine serum to a cell density of 2.5×10^4 cells/well, and then pre-incubated on a 96-well plate for 24 hours. After removing the medium, samples prepared in serum-free D-MEM were added to each well and cultured for 48 hours. After the culture was completed, the amount of hyaluronic acid in the supernatant was quantified by ELISA. Measurements were performed in triplicate (N=3).
# The amount of hyaluronic acid produced when the sample was measured at a concentration of 10 mM or less was compared with that of the control group, and the results (% values when the control group is set to 100%) are shown in Tables 18 to 20 based on the following criteria.
# [5] = Stability Test-2: residual rate in cream of pH 7 or 9 stored at 50° C.; assay type: physicochemical
# Protocol: (§3) For each of the samples of Synthesis Examples 9 to 32, (a) and (b) shown in Table 12 were each heated and mixed. After cooling, (c) shown in Table 12 was added to prepare a cream with a pH of 7 or 9. […] The odor and coloration were also evaluated according to the same method and criteria as in Test Example 1. The results regarding the residual rate are shown in Tables 13 and 14, and the results regarding the odor and coloration are shown in Tables 15 and 16.
# [6] = Stability Test-2: odor of cream stored at 50° C.; assay type: physicochemical; details: 10 panelists
# Source text: as §2, §3
# [7] = Stability Test-2: coloration of cream stored at 50° C.; assay type: physicochemical; details: 10 panelists
# Source text: • Evaluation was made by 10 panelists according to the following criteria. • 3: Almost no change compared to immediately after preparation. • 2: Color changes compared to immediately after preparation. • 1: Strongly colored compared to immediately after preparation. • Based on the results of the above evaluation, the following classification was made:
# as §3
# [8] = pH 3, 50° C., after 2 weeks, 1% aqueous solution, read-out: Residual Rate
# [9] = pH 3, 50° C., 1% aqueous solution
# [10] = pH 5, 50° C., after 2 weeks, 1% aqueous solution, read-out: Residual Rate
# [11] = pH 5, 50° C., 1% aqueous solution
# [12] = pH 7, 50° C., after 2 weeks, 1% aqueous solution, read-out: Residual Rate
# [13] = pH 7, 50° C., 1% aqueous solution
# [14] = pH 8, 50° C., after 2 weeks, 1% aqueous solution, read-out: Residual Rate
# [15] = pH 8, 50° C., 1% aqueous solution
# [16] = pH 9, 50° C., after 2 weeks, 1% aqueous solution, read-out: Residual Rate
# [17] = pH 9, 50° C., 1% aqueous solution
# [18] = cream pH 7, 50° C., after 2 weeks, 20160 min
# [19] = cream pH 7, 50° C., after 4 weeks, 40320 min
# [20] = cream pH 9, 50° C., after 2 weeks, 20160 min
# [21] = cream pH 9, 50° C., after 4 weeks, 40320 min
"remaining at 336 h [1, 8] [%]","remaining at 672 h [1, 9] [%]","remaining at 336 h [1, 10] [%]","remaining at 672 h [1, 11] [%]","remaining at 336 h [1, 12] [%]","remaining at 672 h [1, 13] [%]","remaining at 336 h [1, 14] [%]","remaining at 672 h [1, 15] [%]","remaining at 336 h [1, 16] [%]","remaining at 672 h [1, 17] [%]","Residual Rate [5, 18]","Residual Rate [5, 19]","Residual Rate [5, 20]","Residual Rate [5, 21]",Odor ([6]; after 4 weeks),SMILES,Odor ([2]; after 2 weeks),Hyaluronic acid production-promoting effect [4],Odor ([6]; after 2 weeks),Coloration ([7]; after 2 weeks),Coloration ([7]; after 4 weeks),also measured
,,,,,,,,,,⊚ (95% or more),⊚ (95% or more),⊚ (95% or more),"◯ (85% or more, less than 95%)",Δ (Total score of 10 panelists is 16-24),"CCCCCCCCCCCCCCCC(=O)OCC(O)C1OC(=O)C2=C1OCCCO2 (stereo not shown) [Synthesis Example 26, 6-O-palmitoyl-2,3-O-(1,3-propanediyl) ascorbic acid]",,++ (120%<),◯ (Total score of 10 panelists is 25 or more),◯ (Total score of 10 panelists is 25 or more),Δ (Total score of 10 panelists is 16-24),
,,,,,,,,,,⊚ (95% or more),⊚ (95% or more),⊚ (95% or more),⊚ (95% or more),Δ (Total score of 10 panelists is 16-24),"CC(C)CCCCCCCCCCCCCCC(=O)OCC(O)C1OC(=O)C2=C1OCCCO2 (stereo not shown) [Synthesis Example 28, 6-O-isostearoyl-2,3-O-(1,3-propanediyl) ascorbic acid]",,++ (120%<),◯ (Total score of 10 panelists is 25 or more),◯ (Total score of 10 panelists is 25 or more),◯ (Total score of 10 panelists is 25 or more),
,,,,,,,,,,⊚ (95% or more),⊚ (95% or more),⊚ (95% or more),⊚ (95% or more),Δ (Total score of 10 panelists is 16-24),"CC(C)CCCCCCCCCCCCCCC(=O)OCC(O)C1OC(=O)C2=C1OCCO2 (stereo not shown) [Synthesis Example 31, 6-O-isostearoyl-2,3-O-(1,2-ethanediyl) ascorbic acid]",,++ (120%<),◯ (Total score of 10 panelists is 25 or more),◯ (Total score of 10 panelists is 25 or more),◯ (Total score of 10 panelists is 25 or more),

# The remaining lines, values behind:
SMILES,"remaining at 336 h [1, 8] [%]","remaining at 672 h [1, 9] [%]","remaining at 336 h [1, 10] [%]","remaining at 672 h [1, 11] [%]","remaining at 336 h [1, 12] [%]","remaining at 672 h [1, 13] [%]","remaining at 336 h [1, 14] [%]","remaining at 672 h [1, 15] [%]","remaining at 336 h [1, 16] [%]","remaining at 672 h [1, 17] [%]","Residual Rate [5, 18]","Residual Rate [5, 19]","Residual Rate [5, 20]","Residual Rate [5, 21]",Odor ([6]; after 4 weeks),Odor ([2]; after 2 weeks),Hyaluronic acid production-promoting effect [4],Odor ([6]; after 2 weeks),Coloration ([7]; after 2 weeks),Coloration ([7]; after 4 weeks),also measured
O=C1O[C@H]([C@@H](O)CO)C(O)=C1O [Ascorbic acid],50 to 80,30 to 50,50 to 80,< 30,< 30,< 30,< 30,< 30,< 30,< 30,,,,,,Δ (Total score of 10 panelists is 16-24),± (<100%),,,,"remaining at 336 h ([1]; pH 7 to 9, 50° C., after two weeks, read-out: residual rates): < 30%; Odor ([2]; after 4 weeks): x (The total score of 10 panelists is 15 or less); Coloration ([3]; after 2 weeks): Δ (Total score of 10 panelists is 16-24); Coloration ([3]; after 4 weeks): x (The total score of 10 panelists is 15 or less)"
"O=C1OC(C(O)CO)C2=C1OCCO2 (stereo not shown) [Synthesis Example 1, 2,3-O-(1,2-ethanediyl) ascorbic acid]",≥ 80,≥ 80,≥ 80,≥ 80,50 to 80,30 to 50,30 to 50,< 30,< 30,< 30,,,,,,∘ (Total score of 10 panelists is 25 or more),,,,,Odor ([2]; after 4 weeks): ∘ (Total score of 10 panelists is 25 or more); Coloration ([3]; after 2 weeks): ∘ (Total score of 10 panelists is 25 or more); Coloration ([3]; after 4 weeks): Δ (Total score of 10 panelists is 16-24)
"O=C1OC(C(O)CO)C2=C1OCCCCO2 (stereo not shown) [Synthesis Example 3, 2,3-O-(1,4-butanediyl) ascorbic acid]",≥ 80,≥ 80,≥ 80,≥ 80,≥ 80,≥ 80,≥ 80,50 to 80,50 to 80,30 to 50,,,,,,∘ (Total score of 10 panelists is 25 or more),,,,,Odor ([2]; after 4 weeks): ∘ (Total score of 10 panelists is 25 or more); Coloration ([3]; after 2 weeks): ∘ (Total score of 10 panelists is 25 or more); Coloration ([3]; after 4 weeks): ∘ (Total score of 10 panelists is 25 or more)
"O=C1OC(C(O)CO)C2=C1OC(CO)CO2 (stereo not shown) [Synthesis Example 5, 2,3-O-(1-hydroxymethyl-1,2-ethanediyl) ascorbic acid]",≥ 80,≥ 80,≥ 80,≥ 80,50 to 80,30 to 50,50 to 80,30 to 50,50 to 80,30 to 50,,,,,,∘ (Total score of 10 panelists is 25 or more),,,,,Odor ([2]; after 4 weeks): ∘ (Total score of 10 panelists is 25 or more); Coloration ([3]; after 2 weeks): ∘ (Total score of 10 panelists is 25 or more); Coloration ([3]; after 4 weeks): ∘ (Total score of 10 panelists is 25 or more)
"CCCCCCCC(=O)OCC(O)C1OC(=O)C2=C1OCCCO2 (stereo not shown) [Synthesis Example 22, 6-O-octanoyl-2,3-O-(1,3-propanediyl) ascorbic acid]",,,,,,,,,,,⊚ (95% or more),⊚ (95% or more),⊚ (95% or more),⊚ (95% or more),Δ (Total score of 10 panelists is 16-24),,++ (120%<),◯ (Total score of 10 panelists is 25 or more),◯ (Total score of 10 panelists is 25 or more),◯ (Total score of 10 panelists is 25 or more),
"CCCCCCCCCCCC(=O)OCC(O)C1OC(=O)C2=C1OCCCO2 (stereo not shown) [Synthesis Example 24, 6-O-lauroyl-2,3-O-(1,3-propanediyl) ascorbic acid]",,,,,,,,,,,⊚ (95% or more),⊚ (95% or more),⊚ (95% or more),⊚ (95% or more),Δ (Total score of 10 panelists is 16-24),,++ (120%<),◯ (Total score of 10 panelists is 25 or more),◯ (Total score of 10 panelists is 25 or more),◯ (Total score of 10 panelists is 25 or more),
"CCCCCCCCCCCC(=O)OCC(OC(=O)CCCCCCCCCCC)C1OC(=O)C2=C1OCCCO2 (stereo not shown) [Synthesis Example 25, 5,6-O-dilauroyl-2,3-O-(1,3-propanediyl) ascorbic acid]",,,,,,,,,,,⊚ (95% or more),⊚ (95% or more),⊚ (95% or more),⊚ (95% or more),Δ (Total score of 10 panelists is 16-24),,++ (120%<),◯ (Total score of 10 panelists is 25 or more),◯ (Total score of 10 panelists is 25 or more),Δ (Total score of 10 panelists is 16-24),
